Values quoted from earlier work as cited in patent publication EP2908850B1, “A COMPOSITION COMPRISING GLUCORAPHANIN, MYROSINASE AND A BUFFERED SOLUTION FOR USE IN THE TREATMENT OF NEURODEGENERATIVE DISEASES” (Bramanti, Placido, priority 2012, dated 2014).

Conditions: state of the art statement

C[S+]([O-])CCCCN=C=S (racemic) [RS,SS-SFN, sulforaphane]
solubility in water: slightly soluble in water | stability: unstable
